According to the supplement of paper PMC10307832:

What was measured:
Assay in all cases: relative viability (nuclei count vs DMSO), 5 days (fraction); higher = more cells survive
[1] = system: NCI-H2126
Outline: (§1)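 The day after seeding in 1536-well plates, lung cancer cell lines were treated by pin tool with a single drug, or with a fixed anchor-drug dose together with five library-drug doses (not always all listed) in √10 steps. After 5 days, a combined fix-and-stain solution (final 0.05% Triton X-100, 1% formaldehyde, 1 ug/ml Hoechst) was added. Nuclei counted on 4× images gave relative viability as treated counts over vehicle counts, reported as the median of duplicate plates.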

[2] = system: NCI-H2228
Outline: as §1

[3] = system: HOP-62
Outline: as §1

[4] = system: LOU-NH91
Outline: as §1

[5] = system: NCI-H1734
Outline: as §1

[6] = system: RERF-LC-KJ
Outline: as §1

[7] = system: NCI-H2347
Outline: as §1

[8] = system: LXF-289
Outline: as §1

[9] = system: NCI-H1755
Outline: as §1

[10] = system: NCI-H358
Outline: as §1

[11] = system: LC-2-ad
Outline: as §1

NC(=O)Nc1cc(-c2cccc(F)c2)sc1C(=O)N[C@H]1CCCNC1 [AZD7762] + Cc1cc(Nc2cc(N3CCN(C)CC3)nc(Sc3ccc(NC(=O)C4CC4)cc3)n2)n[nH]1 [Tozasertib] (partner 0.1 µM)
relative viability ([1]; first compound 0.01 µM): 0.889
relative viability ([1]; first compound 0.03162 µM): 0.888
relative viability ([1]; first compound 0.1 µM): 0.937
relative viability ([1]; first compound 0.3162 µM): 0.831
relative viability ([1]; first compound 1 µM): 0.454
relative viability ([2]; first compound 0.01 µM): 0.274
relative viability ([2]; first compound 0.03162 µM): 0.464
relative viability ([2]; first compound 0.1 µM): 0.321
relative viability ([2]; first compound 0.3162 µM): 0.245
relative viability ([2]; first compound 1 µM): 0.121
relative viability ([3]; first compound 0.01 µM): 0.439
relative viability ([3]; first compound 0.03162 µM): 0.376
relative viability ([3]; first compound 0.1 µM): 0.378
relative viability ([3]; first compound 0.3162 µM): 0.339
relative viability ([3]; first compound 1 µM): 0.219
relative viability ([4]; first compound 0.01 µM): 0.741
relative viability ([4]; first compound 0.03162 µM): 0.701
relative viability ([4]; first compound 0.1 µM): 0.665
relative viability ([4]; first compound 0.3162 µM): 0.623
relative viability ([4]; first compound 1 µM): 0.429
relative viability ([5]; first compound 0.01 µM): 0.263
relative viability ([5]; first compound 0.03162 µM): 0.25
relative viability ([5]; first compound 0.1 µM): 0.234
relative viability ([5]; first compound 0.3162 µM): 0.22
relative viability ([5]; first compound 1 µM): 0.199
relative viability ([6]; first compound 0.01 µM): 0.637
relative viability ([6]; first compound 0.03162 µM): 0.509
relative viability ([6]; first compound 0.1 µM): 0.422
relative viability ([6]; first compound 0.3162 µM): 0.453
relative viability ([6]; first compound 1 µM): 0.249
relative viability ([7]; first compound 0.01 µM): 0.62
relative viability ([7]; first compound 0.03162 µM): 0.551
relative viability ([7]; first compound 0.1 µM): 0.585
relative viability ([7]; first compound 0.3162 µM): 0.567
relative viability ([7]; first compound 1 µM): 0.521
relative viability ([8]; first compound 0.01 µM): 0.215
relative viability ([8]; first compound 0.03162 µM): 0.203
relative viability ([8]; first compound 0.1 µM): 0.196
relative viability ([8]; first compound 0.3162 µM): 0.174
relative viability ([8]; first compound 1 µM): 0.188
relative viability ([9]; first compound 0.01 µM): 0.767
relative viability ([9]; first compound 0.03162 µM): 0.572
relative viability ([9]; first compound 0.1 µM): 0.687
relative viability ([9]; first compound 0.3162 µM): 0.539
relative viability ([9]; first compound 1 µM): 0.421
relative viability ([10]; first compound 0.01 µM): 0.0979
relative viability ([10]; first compound 0.03162 µM): 0.088
relative viability ([10]; first compound 0.1 µM): 0.109
relative viability ([10]; first compound 0.3162 µM): 0.0755
relative viability ([10]; first compound 1 µM): 0.0734
relative viability ([11]; first compound 0.01 µM): 0.623
relative viability ([11]; first compound 0.03162 µM): 0.55
relative viability ([11]; first compound 0.1 µM): 0.449
relative viability ([11]; first compound 0.3162 µM): 0.463
relative viability ([11]; first compound 1 µM): 0.268
